From the supplement of paper PMC10307832

Legend:
Test in all cases: relative viability (nuclei count vs DMSO), 5 days (fraction); higher = more cells survive
[1] = test system: BEN
Method in brief: (§1)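 Lung cancer cell lines in 1536-well plates were dosed by pin tool the day after seeding, either with one drug alone or with a fixed anchor-drug dose plus five library-drug doses (not always all listed) in √10 steps. After 5 days, cells were fixed and their nuclei stained in one step (final 0.05% Triton X-100, 1% formaldehyde, 1 ug/ml Hoechst), then counted on 4× images. Relative viability is the nuclei count in treated wells divided by that in vehicle wells. Values are medians of duplicate plates.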

[2] = test system: EKVX
Method in brief: as §1

[3] = test system: EMC-BAC-2
Method in brief: as §1

[4] = test system: EPLC-272H
Method in brief: as §1

[5] = test system: NCI-H596
Method in brief: as §1

[6] = test system: NCI-H460
Method in brief: as §1

[7] = test system: LXF-289
Method in brief: as §1

[8] = test system: NCI-H2126
Method in brief: as §1

[9] = test system: NCI-H1650
Method in brief: as §1

[10] = test system: NCI-H358
Method in brief: as §1

[11] = test system: 201T
Method in brief: as §1

[12] = test system: SW 1573
Method in brief: as §1

[13] = test system: NCI-H1651
Method in brief: as §1

[14] = test system: NCI-H2347
Method in brief: as §1

[15] = test system: LCLC-103H
Method in brief: as §1

[16] = test system: NCI-H2087
Method in brief: as §1

[17] = test system: HCC-827
Method in brief: as §1

[18] = test system: NCI-H1793
Method in brief: as §1

[19] = test system: COR-L23
Method in brief: as §1

[20] = test system: NCI-H1915
Method in brief: as §1

[21] = test system: A-427
Method in brief: as §1

[22] = test system: LK-2
Method in brief: as §1

[23] = test system: HCC-44
Method in brief: as §1

SMILES: O=c1[nH]c2ccccc2n1C1CCN(CCCC(c2ccc(F)cc2)c2ccc(F)cc2)CC1 [Pimozide] + COc1cccc2cc(-c3nc([C@H]4CC[C@H](C(=O)O)CC4)n4ncnc(N)c34)[nH]c12 [OSI-027] (partner 0.5 µM)
- relative viability ([1]; first compound 0.08 µM): 0.275
- relative viability ([1]; first compound 0.253 µM): 0.293
- relative viability ([1]; first compound 0.8 µM): 0.307
- relative viability ([1]; first compound 2.53 µM): 0.321
- relative viability ([1]; first compound 8 µM): 0.304
- relative viability ([2]; first compound 0.08 µM): 0.548
- relative viability ([2]; first compound 0.253 µM): 0.733
- relative viability ([2]; first compound 0.8 µM): 0.668
- relative viability ([2]; first compound 2.53 µM): 0.637
- relative viability ([2]; first compound 8 µM): 0.647
- relative viability ([3]; first compound 0.08 µM): 0.353
- relative viability ([3]; first compound 0.253 µM): 0.337
- relative viability ([3]; first compound 0.8 µM): 0.342
- relative viability ([3]; first compound 2.53 µM): 0.338
- relative viability ([3]; first compound 8 µM): 0.391
- relative viability ([4]; first compound 0.08 µM): 0.276
- relative viability ([4]; first compound 0.253 µM): 0.302
- relative viability ([4]; first compound 0.8 µM): 0.25
- relative viability ([4]; first compound 2.53 µM): 0.176
- relative viability ([4]; first compound 8 µM): 0.234
- relative viability ([5]; first compound 0.08 µM): 0.627
- relative viability ([5]; first compound 0.253 µM): 0.851
- relative viability ([5]; first compound 0.8 µM): 0.642
- relative viability ([5]; first compound 2.53 µM): 0.627
- relative viability ([5]; first compound 8 µM): 0.481
- relative viability ([6]; first compound 0.08 µM): 0.755
- relative viability ([6]; first compound 0.253 µM): 0.66
- relative viability ([6]; first compound 0.8 µM): 0.708
- relative viability ([6]; first compound 2.53 µM): 0.518
- relative viability ([6]; first compound 8 µM): 0.484
- relative viability ([7]; first compound 0.08 µM): 0.693
- relative viability ([7]; first compound 0.253 µM): 0.786
- relative viability ([7]; first compound 0.8 µM): 0.773
- relative viability ([7]; first compound 2.53 µM): 0.811
- relative viability ([7]; first compound 8 µM): 0.716
- relative viability ([8]; first compound 0.08 µM): 0.711
- relative viability ([8]; first compound 0.253 µM): 0.63
- relative viability ([8]; first compound 0.8 µM): 0.755
- relative viability ([8]; first compound 2.53 µM): 0.712
- relative viability ([8]; first compound 8 µM): 0.744
- relative viability ([9]; first compound 0.08 µM): 0.459
- relative viability ([9]; first compound 0.253 µM): 0.668
- relative viability ([9]; first compound 0.8 µM): 0.491
- relative viability ([9]; first compound 2.53 µM): 0.643
- relative viability ([9]; first compound 8 µM): 0.437
- relative viability ([10]; first compound 0.08 µM): 0.829
- relative viability ([10]; first compound 0.253 µM): 0.74
- relative viability ([10]; first compound 0.8 µM): 0.697
- relative viability ([10]; first compound 2.53 µM): 0.646
- relative viability ([10]; first compound 8 µM): 0.678
- relative viability ([11]; first compound 0.08 µM): 0.821
- relative viability ([11]; first compound 0.253 µM): 0.825
- relative viability ([11]; first compound 0.8 µM): 0.711
- relative viability ([11]; first compound 2.53 µM): 0.709
- relative viability ([11]; first compound 8 µM): 0.584
- relative viability ([12]; first compound 0.08 µM): 0.611
- relative viability ([12]; first compound 0.253 µM): 0.668
- relative viability ([12]; first compound 0.8 µM): 0.602
- relative viability ([12]; first compound 2.53 µM): 0.525
- relative viability ([12]; first compound 8 µM): 0.307
- relative viability ([13]; first compound 0.08 µM): 0.657
- relative viability ([13]; first compound 0.253 µM): 0.7
- relative viability ([13]; first compound 0.8 µM): 0.633
- relative viability ([13]; first compound 2.53 µM): 0.757
- relative viability ([13]; first compound 8 µM): 0.596
- relative viability ([14]; first compound 0.253 µM): 0.497
- relative viability ([14]; first compound 0.8 µM): 0.413
- relative viability ([14]; first compound 2.53 µM): 0.39
- relative viability ([14]; first compound 8 µM): 0.359
- relative viability ([15]; first compound 0.08 µM): 0.482
- relative viability ([15]; first compound 0.253 µM): 0.452
- relative viability ([15]; first compound 0.8 µM): 0.384
- relative viability ([15]; first compound 2.53 µM): 0.425
- relative viability ([15]; first compound 8 µM): 0.423
- relative viability ([16]; first compound 0.08 µM): 0.765
- relative viability ([16]; first compound 0.253 µM): 0.55
- relative viability ([16]; first compound 2.53 µM): 0.427
- relative viability ([16]; first compound 8 µM): 0.377
- relative viability ([17]; first compound 0.253 µM): 0.801
- relative viability ([17]; first compound 0.8 µM): 0.738
- relative viability ([17]; first compound 2.53 µM): 0.782
- relative viability ([17]; first compound 8 µM): 0.769
- relative viability ([18]; first compound 0.253 µM): 0.239
- relative viability ([18]; first compound 0.8 µM): 0.205
- relative viability ([18]; first compound 2.53 µM): 0.245
- relative viability ([18]; first compound 8 µM): 0.115
- relative viability ([19]; first compound 0.08 µM): 0.757
- relative viability ([19]; first compound 0.253 µM): 0.75
- relative viability ([19]; first compound 0.8 µM): 0.694
- relative viability ([19]; first compound 2.53 µM): 0.731
- relative viability ([19]; first compound 8 µM): 0.639
- relative viability ([20]; first compound 0.08 µM): 0.6
- relative viability ([20]; first compound 0.253 µM): 0.575
- relative viability ([20]; first compound 0.8 µM): 0.384
- relative viability ([20]; first compound 2.53 µM): 0.581
- relative viability ([20]; first compound 8 µM): 0.478
- relative viability ([21]; first compound 0.08 µM): 0.433
- relative viability ([21]; first compound 0.253 µM): 0.468
- relative viability ([21]; first compound 0.8 µM): 0.414
- relative viability ([21]; first compound 2.53 µM): 0.419
- relative viability ([21]; first compound 8 µM): 0.406
- relative viability ([22]; first compound 0.08 µM): 0.183
- relative viability ([22]; first compound 0.253 µM): 0.249
- relative viability ([22]; first compound 0.8 µM): 0.179
- relative viability ([22]; first compound 2.53 µM): 0.198
- relative viability ([22]; first compound 8 µM): 0.167
- relative viability ([23]; first compound 0.08 µM): 0.489
- relative viability ([23]; first compound 0.253 µM): 0.554
- relative viability ([23]; first compound 0.8 µM): 0.4
- relative viability ([23]; first compound 2.53 µM): 0.52
- relative viability ([23]; first compound 8 µM): 0.289
